Consider 26 molecules from patent publication US8604016B2, “Heterocyclic inhibitors of glutaminase” (Calithera Biosciences Inc., priority 2011, dated 2013).

Molecules are shown by their SMILES.

The target of the assay is recombinant form of Glutaminase 1 (GAC) (Homo sapiens, UniProt O94925). Briefly: Recombinant Enzyme Assay (GAC coupled to GDH, NADH absorbance, no preincubation). It counts as biochemical. Conditions: no preincubation; read-out: GAC Delta N2 IC50 no preinc. As to the method:
Enzymatic reaction was started with the addition of 50 μL of enzyme solution (50 mM Tris-HCl pH 8.0, 0.2 mM EDTA, 150 mM K2HPO4, 0.1 mg/ml BSA, 1 mM DTT, 10 ppm antifoam, 4 units/ml GDH, 4 mM adenosine diphosphate, and 4 nM GAC) and read in a Molecular Devices M5 plate reader at 20° C. The plate reader was configured to read absorbance (λ=340 nm) in kinetic mode for 15 minutes. Data was recorded as milli-absorbance units per minute and slopes were compared to a control compound and a DMSO-only control on the same plate. Compounds with slopes less than the DMSO control were considered inhibitors and plate variability was assessed using the control compound.
Take `COC(=O)c1cccc(NC(=O)Nc2nnc(CCSCCc3nnc(NC(=O)Nc4cccc(C(=O)OC)c4)s3)s2)c1` [Compound 31]: the IC50 was greater than 50 µM.

On to `O=C(Nc1nnc(CCSCCc2nnc(NC(=O)[C@H](O)c3ccccc3)s2)s1)[C@H](O)c1ccccc1` [Compound 81], for which the IC50 worked out at 10 µM.

`O=C(Nc1nnc(CCCCc2nnc(NC(=O)C3Oc4ccccc4O3)s2)s1)C1Oc2ccccc2O1` [Compound 136]: the IC50 came to 7 µM.

`O=C(Cc1coc2ccccc12)Nc1nnc(CCSCCc2nnc(NC(=O)Cc3coc4ccccc34)s2)s1` [Compound 221]: the IC50 is greater than 20 µM.

For `COCC(C(=O)Nc1nnc(CCCCc2nnc(NC(=O)C(COC)c3ccccc3)s2)s1)c1ccccc1` (centres unmarked) [Compound 165], the IC50 was found to be 0.51 µM.

For the molecule `O=C(C[C@@H](O)c1ccccc1)Nc1nnc(CCCCc2nnc(NC(=O)C[C@@H](O)c3ccccc3)s2)s1` [Compound 127], the IC50 was found to be 1.8 µM.

Take `COCCC(=O)Nc1nnc(CCCCc2nnc(NC(=O)CCOC)s2)s1` [Compound 100]: the IC50 turned out to be 8.1 µM.

Regarding `CC(C(=O)Nc1nnc(CCSCCc2nnc(NC(=O)C(C)c3ccccc3)s2)s1)c1ccccc1` (centres unmarked) [Compound 19], the IC50 was 11 µM.

Regarding `O=C(Nc1nnc(CCSCCc2nnc(NC(=O)[C@@H]3CCCN3C(=O)C(F)(F)F)s2)s1)[C@@H]1CCCN1C(=O)C(F)(F)F` [Compound 22], the IC50 was greater than 50 µM.

In the case of `O=C(Cc1cccc(-c2cccc(F)c2)c1)Nc1nnc(CCCCc2nnc(NC(=O)Cc3cccc(-c4cccc(F)c4)c3)s2)s1` [Compound 331], the IC50 was greater than 20 µM.

Take `NCC(C(=O)Nc1nnc(CCSCCc2nnc(NC(=O)C(CN)c3ccccc3)s2)s1)c1ccccc1` (centres unmarked) [Compound 230]: the IC50 stood at 12 µM.

In the case of `COc1ccc(CC(=O)Nc2nnc(CCCCc3nnc(NC(=O)Cc4ccc(OC)c(OC)c4)s3)s2)cc1OC` [Compound 160], the IC50 stood at 0.16 µM.

Turning to `CC(C)(C)OC(=O)N1CCC(CC(=O)Nc2nnc(CCSCCc3nnc(NC(=O)CC4CCN(C(=O)OC(C)(C)C)CC4)s3)s2)CC1` [Compound 111], the IC50 came to 0.95 µM.

As to `N[C@@H](C(=O)Nc1nnc(CCSCCc2nnc(NC(=O)[C@H](N)c3ccccc3)s2)s1)c1ccccc1` [Compound 47], the IC50 was 8.3 µM.

`COC(=O)C(C(=O)Nc1nnc(CCSCCc2nnc(NC(=O)C(C(=O)OC)c3ccccc3)s2)s1)c1ccccc1` (centres unmarked) [Compound 234]: the IC50 was determined as 2 µM.

In the case of `O=C(Cc1ccccc1)Nc1nnc(CCSCCc2nnc(NC(=O)Cc3cccnc3)s2)s1` [Compound 347], the IC50 amounted to 0.22 µM.

For the molecule `O=C(Nc1nnc(CCCCCc2nnc(NC(=O)C(CO)c3ccccc3)s2)s1)C(CO)c1ccccc1` (centres unmarked) [Compound 30], the IC50 worked out at 1.2 µM.

Regarding `O=C(Nc1nnc(CCCCc2nnc(NC(=O)C(CO)c3cccs3)s2)s1)C(CO)c1cccs1` (centres unmarked) [Compound 190], the IC50 was 0.25 µM.

Turning to `O=C(C[C@@H](O)C(=O)O)Nc1nnc(CCCCc2nnc(NC(=O)C[C@@H](O)C(=O)O)s2)s1` [Compound 154], the IC50 amounted to 19 µM.

`O=C(Cc1ccccc1F)Nc1nnc(CCSCCc2nnc(NC(=O)Cc3ccccc3F)s2)s1` [Compound 294]: the IC50 stood at 0.2 µM.

Consider `CC(CCc1nnc(NC(=O)Cc2ccccc2)s1)CCc1nnc(NC(=O)Cc2ccccc2)s1` [Compound 9], for which the IC50 was greater than 50 µM.

As for `CC(=O)O[C@H](C(=O)Nc1nnc(CCCCc2nnc(NC(=O)[C@@H](OC(C)=O)c3ccccc3)s2)s1)c1ccccc1` [Compound 66], the IC50 stood at 20 µM.

`O=C(Nc1nnc(CCSCCc2nnc(NC(=O)C3COc4ccccc4O3)s2)s1)C1COc2ccccc2O1` (centres unmarked) [Compound 41]: the IC50 is 7.9 µM.

In the case of `O=C(Nc1nnc(CCCCc2nnc(NC(=O)C(F)(F)F)s2)s1)C(F)(F)F` [Compound 45], the IC50 was greater than 50 µM.

Regarding `COCOCCOC(C(=O)Nc1nnc(CCCCc2nnc(NC(=O)C(OCCOCOC)c3ccccc3)s2)s1)c1ccccc1` (centres unmarked) [Compound 251], the IC50 stood at 2.8 µM.

For `CCOC(=O)Nc1nnc(CCCCc2nnc(NC(=O)Cc3ccccc3)s2)s1` [Compound 244], the IC50 amounted to 0.84 µM.
